# Columns and labels:
# [1] = Thermal stability, heating in evacuated/sealed ampoules at 200° C. for 24 hours; assay type: physicochemical; settings: ampoule, compared with corresponding THF adduct
# Method: The thermal stability of Mg(hfa)2.1,2-DME is evidenced not only by the TGA data set forth in FIG. 1, but also by investigations as to the extent and nature of the decomposition of Mg(hfa)2.1,2-DME after prolonged heating at temperatures in the 100°-200° C. range.
# As in the case of the magnesium complex, the thermal stability of Zn(hfa)2.1,2-DME is evidenced not only by the observed rapid and complete TGA volatilization behavior shown in FIG. 2, but also by measuring residual gas pressure after heating a sample of the material in a sealed ampoule at 200° C. for 24 hours.
# [2] = Thermogravimetric analysis (TGA), volatility; assay type: physicochemical; settings: for volatilization behavior / decomposition in TGA / T1/2 (temperature at which one-half of the sample has been evaporated): 20 mg sample, 10° C./min, argon; for T1/2 (temperature at which one-half of the sample has been evaporated): TGA; for T1/2 volatility: Table III, comparative data
# Method: A thermogravimetric analysis (TGA) of the product was carried out on a 20 mg sample of the material, heated at a rate of 10° C./min under an argon atmosphere. A thermogravimetric curve resulting from such a study, identified as "TGA-Mg(hfa)2.1,2-DME", is reproduced in FIG. 1 of the drawing.
# Vapor pressure = assay type: physicochemical
# [3] = at 200° C.; EP No. 0103446; cited from earlier work
smiles,measurement,setting,value
"COCCOC.O=C(C=C([O-])C(F)(F)F)C(F)(F)F.O=C(C=C([O-])C(F)(F)F)C(F)(F)F.[Zn+2] [Zn(hfa)2.1,2-DME]",residual pressure after heating,[1],lower residual pressure
same,sample discoloration after heating,[1],less discoloration
same,volatilization behavior / decomposition in TGA,[2]; in words,"rapid and complete vaporization over a narrow range of temperatures, indicating no detectable thermal decomposition"
same,T1/2 (temperature at which one-half of the sample has been evaporated),[2],162 °C
same,T1/2 volatility,[2],162 °C
same,T1/2 temperature compared with Zn(hfa)2.2THF,"[2]; same TGA conditions, in words",only slightly higher than the T1/2 temperature of Zn(hfa)2.2THF
same,vapor pressure,Vapor pressure; at 125° C.,about 16 mm (Hg)
"O=C(C=C([O-])C(F)(F)F)C(F)(F)F.O=C(C=C([O-])C(F)(F)F)C(F)(F)F.[Zn+2].c1cnc2c(c1)ccc1cccnc12 [Zn(hfa)2.1,10-phenanthroline, reference compound]",T1/2 volatility,[2],310 °C
"COCCOC.O=C(C=C([O-])C(F)(F)F)C(F)(F)F.O=C(C=C([O-])C(F)(F)F)C(F)(F)F.[Mg+2] [Mg(hfa)2.1,2-DME]",residual pressure after heating,[1],lower residual pressure
same,sample discoloration after heating,[1],less discoloration
same,volatilization behavior / decomposition in TGA,[2]; in words,"rapid and complete volatilization of the complex over a narrow temperature range, indicating the absence of detectable decomposition"
same,T1/2 (temperature at which one-half of the sample has been evaporated),[2],about 170 °C
same,T1/2 volatility,[2],170 °C
same,vapor pressure,Vapor pressure; at about 120° C.,10 mm (Hg)
"O=C(C=C([O-])C(F)(F)F)C(F)(F)F.O=C(C=C([O-])C(F)(F)F)C(F)(F)F.[Zn+2].c1ccc(-c2ccccn2)nc1 [Zn(hfa)2.2,2'-bipyridine, reference compound]",T1/2 volatility,[2],295 °C
"C1CCOC1.C1CCOC1.O=C(C=C([O-])C(F)(F)F)C(F)(F)F.O=C(C=C([O-])C(F)(F)F)C(F)(F)F.[Mg+2] [Mg(hfa)2.2THF, reference compound]",T1/2 (temperature at which one-half of the sample has been evaporated),[2],180 °C
same,volatilization without decomposition,[3],can be volatilized without decomposition
"O=C(C=C([O-])C(F)(F)F)C(F)(F)F.O=C(C=C([O-])C(F)(F)F)C(F)(F)F.[Mg+2].c1cnc2c(c1)ccc1cccnc12 [Mg(hfa)2.1,10-phenanthroline, reference compound]",T1/2 volatility,[2],295 °C

# Reference: patent US4558144A, “Volatile metal complexes” (Corning Glass Works, priority 1984, dated 1985)
